Experimental data published in patent publication US9206200B2, “N-linked lactam M1 receptor positive allosteric mogulators” (Merck Sharp & Dohme Corp., priority 2011, dated 2015).
pEC50: −log10 of the molar value. Like-named read-outs stand apart in the source and are kept apart here.

Molecular target: T1, acetylcholine muscarinic M1 receptor (Homo sapiens, UniProt P11229)
T1 construct: expressed in transfected cells; host or cells: CHOnfat cells (CHO cells with an NFAT reporter) expressing hM1, kept under Geneticin selection
T1 sequence (P11229 1-460): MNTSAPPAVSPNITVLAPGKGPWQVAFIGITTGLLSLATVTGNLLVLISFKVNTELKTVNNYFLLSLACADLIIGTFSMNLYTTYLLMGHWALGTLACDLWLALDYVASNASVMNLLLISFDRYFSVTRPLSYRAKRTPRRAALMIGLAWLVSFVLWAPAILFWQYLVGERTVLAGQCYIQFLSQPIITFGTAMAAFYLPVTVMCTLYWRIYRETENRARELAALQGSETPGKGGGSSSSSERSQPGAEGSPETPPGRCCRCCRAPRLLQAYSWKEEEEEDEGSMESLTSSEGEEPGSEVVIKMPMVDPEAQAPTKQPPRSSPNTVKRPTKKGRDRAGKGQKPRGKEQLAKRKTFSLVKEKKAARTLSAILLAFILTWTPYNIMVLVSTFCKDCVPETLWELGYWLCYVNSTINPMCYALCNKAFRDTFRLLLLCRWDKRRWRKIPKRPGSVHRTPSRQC
Assay: muscarinic FLIPR assay: intracellular calcium in CHOnfat/hM1 cells, potentiation of EC20 acetylcholine
Format: cell-based
Conditions: EC20 acetylcholine (3 nM final)
Outline: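 CHOnfat cells stably expressing human M1, Fluo-4AM-loaded, in HBSS with 20 mM HEPES, 2.5 mM probenecid, 1% BSA. Compounds preincubated 4 min (printed "4 mM") before an EC20 acetylcholine challenge (3 nM final). FLIPR intracellular Ca²⁺ signal compared with 3 nM acetylcholine alone to detect potentiation.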

[1] = Table 1, CHOnfat/hM1 cells, FLIPR, read-out: M1 Pot.
[2] = Table 2, CHOnfat/hM1 cells, FLIPR, read-out: M1 Pot.

pEC50 [1] | pEC50 [2] | Compound | also measured
5.41 | – | Cn1cc(N2CCN(Cc3cc4c(c5ccccc35)CN(C3CCCOC3)C4=O)CC2)cn1 (stereo not drawn) [Example 83, 5-{[4-(1-methyl-1H-pyrazol-4-yl)piperazin-1-yl]methyl}-2-(tetrahydro-2H-pyran-3-yl)-1,2-dihydro-3H-benzo[e]isoindol-3-one] | –
– | 6.82 | O=C1c2cc(CN3CCC(F)(F)C3)c3cccnc3c2CN1C1CCCCC1O (stereo not drawn) [Example 98, 5-[(3,3-difluoropyrrolidin-1-yl)methyl]-8-(2-hydroxycyclohexyl)-8,9-dihydro-7H-pyrrolo[3,4-h]quinolin-7-one] | –
5.57 | – | O=C1c2cc(CN3CCCC3C(F)(F)F)c3ccccc3c2CN1C1CCCCC1O (stereo not drawn) [Example 30, 2-(2-hydroxycyclohexyl)-5-{[2-(trifluoromethyl)pyrrolidin-1-yl]methyl}-1,2-dihydro-3H-benzo[e]isoindol-3-one] | –
– | 6.89 | CCCC#CC1(F)CCN(Cc2cc3c(c4ncccc24)CN([C@H]2CCCC[C@@H]2O)C3=O)CC1 [Example 125, 5-[(4-fluoro-4-pent-1-yn-1-ylpiperidin-1-yl)methyl]-8-[(1S,2S)-2-hydroxycyclohexyl]-8,9-dihydro-7H-pyrrolo[3,4-h]quinolin-7-one] | –
– | 7.36 | C#CC1CCN(Cc2cc3c(c4ncccc24)CN(C2CCCCC2O)C3=O)CC1 (stereo not drawn) [Example 124, 5-[(4-ethynylpiperidin-1-yl)methyl]-8-(2-hydroxycyclohexyl)-8,9-dihydro-7H-pyrrolo[3,4-h]quinolin-7-one] | –
– | 7.62 | COc1ccc(N2CCN(Cc3cc4c(c5ncccc35)CN(C3CCCCC3O)C4=O)CC2)cc1 (stereo not drawn) [Example 168, 8-(2-hydroxycyclohexyl)-5-{[4-(4-methoxyphenyl)piperazin-1-yl]methyl}-8,9-dihydro-7H-pyrrolo[3,4-h]quinolin-7-one] | –
– | – | CC1CCN(Cc2cc3c(c4ncccc24)CN([C@H]2CCCC[C@@H]2O)C3=O)CC1 [Example 87, 8-[(1S,2S)-2-hydroxycyclohexyl]-5-[(4-methylpiperidin-1-yl)methyl]-8,9-dihydro-1H-pyrrolo[3,4-h]quinolin-7-one] | pEC50 (M1 Pot., Table 2, CHOnfat/hM1 cells, FLIPR): 6.70
– | 7.07 | O=C1c2cc(CN3CCCC(F)(F)C3)c3cccnc3c2CN1C1CCCCC1O (stereo not drawn) [Example 122, 5-[(3,3-difluoropiperidin-1-yl)methyl]-8-(2-hydroxycyclohexyl)-8,9-dihydro-7H-pyrrolo[3,4-h]quinolin-7-one] | –
6.56 | – | Cn1cc(N2CCN(Cc3cc4c(c5ccccc35)CN(c3ccccc3F)C4=O)CC2)cn1 [Example 66, 2-(2-fluorophenyl)-5-{[4-(1-methyl-1H-pyrazol-4-yl)piperazin-1-yl]methyl}-1,2-dihydro-3H-benzo[e]isoindol-3-one] | –
– | 6.60 | CC1(F)CCN(Cc2cc3c(c4ncccc24)CN([C@H]2CCCC[C@@H]2O)C3=O)CC1 [Example 102, 5-[(4-fluoro-4-methylpiperidin-1-yl)methyl]-8-[(1S,2S)-2-hydroxycyclohexyl]-8,9-dihydro-7H-pyrrolo[3,4-h]quinolin-7-one] | –
– | – | Cc1cccc(C2(C#N)CCN(Cc3cc4c(c5ccccc35)CN([C@H]3CCCC[C@@H]3O)C4=O)CC2)n1 [Example 4, 1-({2-[(1S,2S)-2-Hydroxycyclohexyl]-3-oxo-2,3-dihydro-1H-benzo[e]isoindol-5-yl}methyl)-4-(6-methylpyridin-2-yl)piperidine-4-carbonitrile] | pEC50 (Table 3, inflection point calculated from the FLIPR values, read-out: IP Value): 7.57
– | 7.68 | CCC1c2c(cc(CN3CCC(F)(C#N)CC3)c3cccnc23)C(=O)N1[C@@H]1CCCC[C@@H]1O (stereo partly drawn) [Example 120, 1-({9-ethyl-8-[(1R,2S)-2-hydroxycyclohexyl]-7-oxo-8,9-dihydro-7H-pyrrolo[3,4-h]quinolin-5-yl}methyl)-4-fluoropiperidine-4-carbonitrile] | –
– | 5.54 | O=C1c2cc(CN3CCCCC3)c3cccnc3c2CN1[C@H]1CCCC[C@@H]1O [Example 86, 8-[(1S,2S)-2-hydroxycyclohexyl]-5-(piperidin-1-ylmethyl)-8,9-dihydro-7H-pyrrolo[3,4-h]quinolin-7-one] | –
– | 7.00 | CC1c2c(cc(CN3CCN(c4ccc(F)cc4)CC3)c3cccnc23)C(=O)N1C1CCCCC1O (stereo not drawn) [Example 173, 5-{[4-(4-fluorophenyl)piperazin-1-yl]methyl}-8-(2-hydroxycyclohexyl)-9-methyl-8,9-dihydro-7H-pyrrolo[3,4-h]quinolin-7-one] | –
– | 7.05 | CC1c2c(cc(CN3CCC(c4ccncc4)CC3)c3cccnc23)C(=O)N1C1CCCCC1O (stereo not drawn) [Example 143, 8-(2-hydroxycyclohexyl)-9-methyl-5-[(4-pyridin-4-ylpiperidin-1-yl)methyl]-8,9-dihydro-7H-pyrrolo[3,4-h]quinolin-7-one] | –
6.14 | – | CS(=O)(=O)N1CCN(Cc2cc3c(c4ccccc24)CN(C2CCCCC2O)C3=O)CC1 (stereo not drawn) [Example 15, 2-(2-hydroxycyclohexyl)-5-{[4-(methylsulfonyl)piperazin-1-yl]methyl}-1,2-dihydro-3H-benzo[e]isoindol-3-one] | –
7.34 | – | O=C1c2cc(CN3CCN(c4ccccn4)CC3)c3ccccc3c2CN1[C@H]1CCCC[C@@H]1O [Example 74, 2-[(1S,2S)-2-hydroxycyclohexyl]-5-[(4-pyridin-2-ylpiperazin-1-yl)methyl]-1,2-dihydro-3H-benzo[e]isoindol-3-one] | –
6.67 | – | O=C1c2cc(CN3CCN(c4ccncc4)CC3)c3ccccc3c2CN1[C@H]1CCCC[C@@H]1O [Example 77, 2-[(1S,2S)-2-hydroxycyclohexyl]-5-[(4-pyridin-4-ylpiperazin-1-yl)methyl]-1,2-dihydro-3H-benzo[e]isoindol-3-one] | –
6.62 | – | O=C1c2cc(CN3CCC(c4ccncc4)CC3)c3ccccc3c2CN1C1CCCCC1O (stereo not drawn) [Example 42, 2-(2-hydroxycyclohexyl)-5-[(4-(4-pyridinyl)piperidin-1-yl)methyl]-1,2-dihydro-3H-benzo[e]isoindol-3-one] | –
5.74 | – | O=C1c2cc(CN3CC[C@H](F)C3)c3ccccc3c2CN1C1CCCCC1O (stereo partly drawn) [Example 32, 5-{[(3S)-3-fluoropyrrolidin-1-yl]methyl}-2-(2-hydroxycyclohexyl) 1,2-dihydro-3H-benzo[e]isoindol-3-one] | –
5.89 | – | CN1CCN(Cc2cc3c(c4ccccc24)CN([C@H]2CCCC[C@@H]2O)C3=O)CC1 [Example 12, 2-[(1S,2S)-2-hydroxycyclohexyl]-5-[(4-methylpiperazin-1-yl)methyl]-1,2-dihydro-3H-benzo[e]isoindol-3-one] | –
5.11 | – | CC1CCCN(Cc2cc3c(c4ccccc24)CN(C2CCCCC2O)C3=O)C1 (stereo not drawn) [Example 16, 2-(2-hydroxycyclohexyl)-5-[(3-methylpiperidin-1-yl)methyl]-1,2-dihydro-3H-benzo[e]isoindol-3-one] | –
– | 7.74 | O=C1c2cc(CN3CCN(c4ccccc4)CC3)c3cccnc3c2CN1C1CCCCC1O (stereo not drawn) [Example 174, 8-(2-hydroxycyclohexyl)-5-[(4-phenylpiperazin-1-yl)methyl]-8,9-dihydro-7H-pyrrolo[3,4-h]quinolin-7-one] | –
– | 6.54 | O=C1c2cc(CN3CCC(O)CC3)c3cccnc3c2CN1C1CCCCC1O (stereo not drawn) [Example 89, 8-(2-hydroxycyclohexyl)-5-[(4-hydroxypiperidin-1-yl)methyl]-8,9-dihydro-7H-pyrrolo[3,4-h]quinolin-7-one] | –

Compound | pEC50 [1] | pEC50 [2] | also measured
Cc1ccccc1C1(C#N)CCN(Cc2cc3c(c4ccccc24)CN([C@@H]2CCCC[C@@H]2O)C3=O)CC1 [Example 61, 1-({2-[(1R,2S)-2-hydroxycyclohexyl]-3-oxo-2,3-dihydro-1H-benzo[e]isoindol-5-yl}methyl)-4-(2-methylphenyl)piperidine-4-carbonitrile] | 6.97 | – | –
O=C1c2cc(CN3CCC4(CC3)COc3ccccc34)c3cccnc3c2CN1C1CCCCC1O (stereo not drawn) [Example 95, 8-(2-hydroxycyclohexyl)-5-(1′H-spiro[1-benzofuran-3,4′-piperidin]-1′-ylmethyl)-8,9-dihydro-7H-pyrrolo[3,4-h]quinolin-7-one] | – | 6.54 | –
1-({8-[(1S,2S)-2-hydroxycyclohexyl]-7-oxo-8,9-dihydro-7H-pyrrolo[3,4-h]quinolin-5-yl}methyl)-4-(6-methoxypyridin-2-yl)piperidine-4-carbonitrile [Example 155] | – | 6.28 | –
Cc1ccnc(C2(C#N)CCN(Cc3cc4c(c5ccccc35)CN(c3ccccc3F)C4=O)CC2)c1 [Example 63, 1-{[2-(2-fluorophenyl)-3-oxo-2,3-dihydro-1H-benzo[e]isoindol-5-yl]methyl}-4-(4-methylpyridin-2-yl)piperidine-4-carbonitrile] | 6.26 | – | –
N#CC1(c2cccc(Cl)n2)CCN(Cc2cc3c(c4ccccc24)CN([C@H]2CCCC[C@@H]2O)C3=O)CC1 [Example 48] | 7.28 | – | –
N#CC1CCN(Cc2cc3c(c4ncccc24)CN([C@H]2CCCC[C@@H]2O)C3=O)CC1 [Example 94, 1-({8-[(1S,2S)-2-hydroxycyclohexyl]-7-oxo-8,9-dihydro-7H-pyrrolo[3,4-h]quinolin-5-yl}methyl)piperidine-4-carbonitrile] | – | 7.29 | –
